ChEMBL document CHEMBL3886166, “Heterocyclic compounds” (2015)

Legend:
[1] = target: T1, Transient receptor potential cation channel subfamily V member 1 (Homo sapiens, UniProt Q8NER1); assay: Capsaicin-Based Assay: Two days prior to performing this assay, cells are seeded in poly-D-lysine-coated 96-well clear-bottom black plates (50,000 cells/well) in growth media containing 5 uM PonA (commercially available from Invitrogen) to induce expression of TRPV1. On the day of the assay, the plates are washed with 0.2 mL 1x Hank's Balanced Salt Solution (commercially available from Life Technologies) containing 1 mM CaCl2 and 20 mM HEPES, pH 7.4, and cells are loaded using 0.1 mL of wash buffer containing Fluo-4 (3 uM final). After one hour, the cells are washed twice with 0.2 mL of wash buffer and resuspended in 0.1 mL of wash buffer. The plates are transferred to a FLIPR for assay. 50 uL of test compound diluted with assay buffer (1x Hank's Balanced Salt Solution containing 1 mM CaCl2 and 20 mM HEPES, pH 7.4) are added to the cell plates and incubated for 2 min. The final concentration of the compound is adjusted to range from about 50 picoM to about 3 uM.
[2] = target: T1, Transient receptor potential cation channel subfamily V member 1; assay: pH-Based Assay: Two days prior to performing this assay, cells are seeded on poly-D-lysine-coated 96-well clear-bottom black plates (commercially available from Becton-Dickinson) at 75,000 cells/well in growth media containing 5 uM PonA (commercially available from Invitrogen) to induce expression of TRPV1. On the day of the assay, the plates are washed with 0.2 mL 1x Hank's Balanced Salt Solution (commercially available from Life Technologies) containing 1.6 mM CaCl2 and 20 mM HEPES, pH 7.4 (wash buffer), and loaded using 0.1 mL of wash buffer containing Fluo-4 (3 uM final concentration, commercially available from Molecular Probes). After 1 h, the cells are washed twice with 0.2 mL wash buffer and resuspended in 0.05 mL 1x Hank's Balanced Salt Solution (commercially available from Life Technologies) containing 3.5 mM CaCl2 and 10 mM Citrate, pH 7.4 (assay buffer). Plates are then transferred to a FLIPR for assay.

T1 sequence (Q8NER1 whole entry): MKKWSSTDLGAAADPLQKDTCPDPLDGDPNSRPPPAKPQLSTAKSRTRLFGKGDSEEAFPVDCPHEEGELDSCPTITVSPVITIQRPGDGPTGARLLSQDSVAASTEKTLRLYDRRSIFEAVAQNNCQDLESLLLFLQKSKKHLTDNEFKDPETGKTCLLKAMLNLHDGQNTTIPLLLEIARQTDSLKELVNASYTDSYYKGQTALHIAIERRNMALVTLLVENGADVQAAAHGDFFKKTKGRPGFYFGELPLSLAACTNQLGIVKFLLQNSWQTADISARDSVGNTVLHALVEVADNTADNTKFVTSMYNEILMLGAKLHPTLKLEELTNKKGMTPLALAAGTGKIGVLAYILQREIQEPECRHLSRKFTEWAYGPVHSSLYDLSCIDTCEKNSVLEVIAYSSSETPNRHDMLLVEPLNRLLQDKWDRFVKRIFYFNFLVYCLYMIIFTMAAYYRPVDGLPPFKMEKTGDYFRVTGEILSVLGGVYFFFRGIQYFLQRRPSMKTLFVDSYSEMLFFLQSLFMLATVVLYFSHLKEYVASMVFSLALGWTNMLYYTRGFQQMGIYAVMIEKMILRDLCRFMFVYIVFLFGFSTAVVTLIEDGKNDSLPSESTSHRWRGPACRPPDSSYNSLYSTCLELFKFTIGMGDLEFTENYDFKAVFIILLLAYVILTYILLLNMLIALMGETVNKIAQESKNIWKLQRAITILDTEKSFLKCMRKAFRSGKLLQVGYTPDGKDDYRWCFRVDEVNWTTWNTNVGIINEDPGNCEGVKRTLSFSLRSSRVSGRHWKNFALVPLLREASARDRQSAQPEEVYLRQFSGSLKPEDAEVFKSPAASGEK

IC50 [1] | IC50 [2] | SMILES
< 100 nM | – | O=C(Nc1ccc(C(F)(F)F)cn1)N1CC=C(c2ncc(-c3nc(CO)no3)cc2Cl)CC1
– | < 100 nM | O=C(Nc1ccc(C(F)(F)F)cn1)N1CCN(c2ncc(-c3nc(CO)no3)cc2Cl)CC1
< 100 nM | – | Cc1cc(NC(=O)N2CCC(F)(c3ncc(-c4ocnc4CO)cc3Cl)CC2)ccc1C(F)(F)F
– | < 100 nM | Cc1cc(NC(=O)N2CC=C(c3ncc(-c4nnc(CCO)o4)cc3Cl)CC2)ccc1OC(F)(F)F
< 100 nM | – | O=C(Nc1ccc(C(F)(F)F)c(Cl)c1)N1CC=C(c2ncc(-c3noc(CO)n3)cc2Cl)CC1
– | < 100 nM | Cc1noc(-c2cnc(C3=CCN(C(=O)Nc4ccc(OC(F)(F)F)cc4)CC3)c(Cl)c2)n1
– | < 100 nM | O=C(Nc1ccc(C(F)(F)F)cn1)N1CC=C(c2ncc(-c3cnc(CO)o3)cc2Cl)CC1
– | < 100 nM | Cc1cc(NC(=O)N2CC=C(c3ncc(-c4nnc(CCO)o4)cc3Cl)CC2)ccc1C(F)(F)F
– | < 100 nM | Cc1cc(NC(=O)N2CCN(c3ncc(-c4nc(CO)no4)cc3Cl)CC2)ccc1C(F)(F)F
< 100 nM | – | Cc1nnc(-c2cnc(C3=CCN(C(=O)Nc4ccc(OC(F)(F)F)cc4)CC3)c(Cl)c2)o1
< 100 nM | – | O=C(C#Cc1ccc(-c2nnc(CO)o2)cc1Cl)Nc1ccc(C(F)(F)F)c(Cl)c1
< 100 nM | – | O=C(Nc1ccc(C(F)(F)F)cc1)N1CC=C(c2ncc(-c3nnc(CO)o3)cc2Cl)CC1
– | < 100 nM | O=C(Nc1ccc(C(F)(F)F)c(Cl)c1)N1CCN(c2ncc(-c3nnc(CO)o3)cc2Cl)CC1
– | < 100 nM | Cc1cc(NC(=O)N2CC=C(c3ncc(-c4nc(CO)no4)cc3Cl)CC2)ccc1C(F)(F)F
– | < 100 nM | O=C(Nc1ccc(C(F)(F)F)c(Cl)c1)N1CC=C(c2ncc(-c3ocnc3CO)cc2Cl)CC1
< 100 nM | – | O=C(Nc1ccc(C(F)(F)F)cn1)N1CC=C(c2ncc(-c3noc(CO)n3)cc2Cl)CC1
– | < 100 nM | Cc1cc(NC(=O)N2CCN(c3ncc(-c4nnc(CO)o4)cc3Cl)CC2)ccc1C(F)(F)F

IC50 [1] | IC50 [2] | SMILES
< 100 nM | – | O=C(C#Cc1ccc(-c2nnc(CO)o2)cc1Cl)Nc1ccc(C(F)(F)F)cc1
< 100 nM | – | O=C(Nc1ccc(C(F)(F)F)c(Cl)c1)N1CC=C(c2ncc(-c3nnc(CO)o3)cc2Cl)CC1
< 100 nM | – | O=C(Nc1ccc(C(F)(F)F)cn1)N1CCN(c2ncc(-c3nnc(CO)o3)cc2Cl)CC1
– | < 100 nM | Cc1nnc(-c2cnc(C3=CCN(C(=O)Nc4ccc(C(F)(F)F)cn4)CC3)c(Cl)c2)o1
– | < 100 nM | O=C(Nc1ccc(C(F)(F)F)c(Cl)c1)N1CCC(F)(c2ncc(-c3nc(CO)no3)cc2Cl)CC1
– | < 100 nM | Cc1noc(-c2cnc(C3=CCN(C(=O)Nc4ccc(C(F)(F)F)cc4)CC3)c(Cl)c2)n1
< 100 nM | – | O=C(Nc1ccc(C(F)(F)F)cn1)N1CC=C(c2ncc(-c3nnc(CO)o3)cc2Cl)CC1
< 100 nM | – | Cc1cc(NC(=O)N2CC=C(c3ncc(-c4nc(CO)no4)cc3F)CC2)ccc1C(F)(F)F
– | < 100 nM | O=C(Nc1ccc(C(F)(F)F)c(Cl)c1)N1CC=C(c2ncc(-c3cc(CO)on3)cc2Cl)CC1
< 100 nM | – | Cc1nnc(-c2cnc(C3=CCN(C(=O)Nc4ccc(C(F)(F)F)cc4)CC3)c(Cl)c2)o1
– | < 100 nM | O=C(Nc1ccc(C(F)(F)F)cn1)N1CC=C(c2ccc(-c3nnc(CO)o3)cc2Cl)CC1
– | < 100 nM | O=C(Nc1ccc(C(F)(F)F)cn1)N1CC=C(c2ncc(-c3cc(CO)on3)cc2Cl)CC1
< 100 nM | – | O=C(Nc1ccc(C(F)(F)F)cn1)N1CC=C(c2ncc(-c3nc(CO)no3)cc2F)CC1
– | < 100 nM | Cc1cc(NC(=O)N2CCC(F)(c3ncc(-c4nc(CO)no4)cc3Cl)CC2)ccc1C(F)(F)F
– | < 100 nM | O=C(Nc1ccc(C(F)(F)F)c(Cl)c1)N1CCC(F)(c2ncc(-c3noc(CO)n3)cc2Cl)CC1
– | < 100 nM | O=C(Nc1ccc(C(F)(F)F)cn1)N1CCC(F)(c2ncc(-c3noc(CO)n3)cc2Cl)CC1
